{"source": "paper PMC10550821", "about": "“Cryo-EM structures reveal native GABAA receptor assemblies and pharmacology” (Nature, 2023)", "key": {"[1]": {"target": "T1, GABAA receptor α1 subunit (native α1*-β2-α1-β2*-γ2 nα1-GABAAR) (Mus musculus, UniProt P22723+P62812)", "T1 construct": "gene Gabra1; main assembly alpha1/beta2/gamma2", "test": "cryo-EM structure; competitive [3H]flunitrazepam scintillation proximity assay", "type": "binding"}, "[2]": {"target": "T2, GABAA receptor α1 subunit (native α1-containing receptors, nα1-GABAARs) (Mus musculus, UniProt P22723+P62812)", "T2 construct": "gene Gabra1; native receptor ensemble purified from mouse brain (cerebellum excluded) in nanodiscs; with GABAA receptor γ2 subunit (Gabrg2); β2 subunit (Gabrb2) in the main assembly", "test": "radioligand binding, scintillation proximity assay"}, "[3]": {"target": "T3, GABAA receptor α1 subunit, as it stood in the measurement of the Kd of 8E3-GFP Fab (sample not stated) (Mus musculus (assumed; mature rat chain …, UniProt P62812)", "T3 construct": "GABAA receptor subunit alpha-1; the Kd may come from such a sample", "test": "not stated; dissociation constant of 8E3-GFP Fab, printed with a pointer to Extended Data Fig. 1; method and sample not told"}}, "data": [{"molecule": "Cc1ccc(-c2nc3ccc(C)cn3c2CC(=O)N(C)C)cc1", "note": "[ZOL, zolpidem]", "values": [{"measurement": "Ki", "setting": "[1]", "value": "22.9 ± 2.7", "unit": "nM"}]}, {"molecule": "CN1C(=O)CN=C(c2ccccc2F)c2cc([N+](=O)[O-])ccc21", "note": "[flunitrazepam]", "values": [{"measurement": "Kd", "setting": "[2]", "value": "6 ± 0.2", "unit": "nM"}]}, {"molecule": "8E3-GFP Fab (α1 subunit-specific Fab fragment of mouse monoclonal antibody 8E3, with 3C site, EGFP and twin-strep II tag on the heavy chain) (Fab, V domains shown, Fab heavy chain of 8E3; Fab light chain of 8E3; Both chains were expressed with an N-terminal GP64 signal peptide; also called α1-specific Fab; source: Sf9, recombinant baculovirus, secreted into the supernatant, purified (streptactin column); not shown: EGFP, C-terminal, kept; twin-strep II, C-terminal, kept) VH: EIQLQQSGPELVKPGTSVKVSCKASGYSFTDYNMYWVKQSHGKSLEWIGYIDPYNADTTYNREFKGKATLTVDKSSSTAFMHLNSLTSEDSAVYYCARKRNNFYFDYWGQGTPLTVSS VL: YIVMTQSPKSMSMSLGERVTLSCRASEYVGSYVSWYQQKPEQSPKLLIYGASNRYTGVPDRFAGSGSATDFTLTITSVQAEDLADYHCGQTYNYPTFGGGTKLEIK", "values": [{"measurement": "Kd", "setting": "[3]", "value": 0.5, "unit": "nM"}]}]}
